Reference: patent US20080145886A1, “Assay for Cytochrome P450 Isoforms 3A4 and 3A5” (priority 2004, published 2008)

Key:
CYP3A4/5 [1] = molecular target: T1, CYP3A4/5 (Homo sapiens, UniProt P08684); experiment: in vitro; settings: microsomes
Experimental: Quantification of 6β-hydroxytestosterone and 2β-hydroxytestosterone. Aliquots of the assay reaction mixture and of metabolite standard curves were analyzed by HPLC using an Agilent HP1100 liquid chromatograph (Agilent Technologies) equipped with a CTC Analytics PAL autosampler (HTS PAL; CTC Analytics AG, Switzerland). Chromatography was performed on an XTERRA MS C18 column (4.6 mm×5 cm; 5 μm; Waters Corp.) at a flow rate of 1 mL/min, using a mobile phase consisting of a mixture of 0.1% formic acid in water (A) and 0.1% formic acid in acetonitrile (B) (linear gradient for 4 min from 5-100% B; 2 min at 100% B). The eluant was diverted to waste for the first minute, and then to a Sciex API-2000 triple quadrupole mass spectrometer with a Turbo Ionspray ionization source operated in the positive ion mode. […] Metabolite concentrations were determined by weighted linear least-squares regression analysis of peak area ratios vs. those of a standard curve, using Analyst Quantitation Wizard software version 1.4.

CYP3A4/5 [2] = molecular target: T1, CYP3A4/5; experiment: in vitro; settings: pH 7.6; for IC50: microsomes
Experimental: Pooled HLM were obtained from Gentest Corp. (Woburn, Mass.). Inhibitors were added to the reaction mixture from stock solutions in DMSO, giving a final solvent concentration of 0.6% (v/v). No inhibitor controls contained an equivalent amount of vehicle. Following preincubation for 10 minutes at 37° C., reactions were started by addition of 1 mM NADPH and an NADPH regenerating system containing 5 mM glucose-6-phosphate, 3 mM MgCl2, and 1 U/mL glucose-6-phosphate dehydrogenase. Assays were conducted for 10 minutes at 37° C. and stopped by addition of HCl to a final concentration of 0.1 N. Plates were then centrifuged for 10 minutes in a microplate rotor and supernatants loaded into the wells of a preconditioned 30 mg OASIS 96-well HLB plate. OASIS HLB 96 well extraction plates containing 10 or 30 mg of OASIS sorbent and vacuum manifold were purchased from Waters Corp. Vacuum was applied and the void volume collected in the collection plate. Then, 200 μL of water was added, vacuum was applied again, and the wash was collected into the same plate. This step was repeated. Pooled void volume and water washes were transferred into scintillation vials and counted in a beta-scintillation counter. Alternatively, aliquots were counted in […] scintillation plates using a TOPCOUNT scintillation counter (Packard, Perkin Elmer, Boston, Mass.). For the calculation of enzyme activity, product counts were corrected by subtraction of counts obtained in control incubations performed in the absence of NADPH regenerating system.
Total radioactivity was 100,000 to 200,000 dpm, reaction volume was 100 μL, and solvent concentration (coming from inhibitor stock solutions) was 0.3-0.7% DMSO and 0.5% acetonitrile (v/v). […] Radioactivity was determined using a Beckman beta scintillation counter, or by counting 120 μL aliquots in 96-well scintillation plates using a TOPCOUNT scintillation counter. […]
Without using the known ^TV/K ratio (which would be tautological, since it was derived from SAP), v′, the apparent formation rate of unlabelled product, can be calculated. […]

CYP3A4/5 [3] = test system: CYP3A4/5
Experimental: Cryopreserved human hepatocytes from two different donors were obtained from Tissue Transformation Technologies (Edison, N.J.). […] CYP3A4/5 enzyme activity was then determined as follows.
The incubation medium was then loaded onto individual wells of preconditioned 30 mg OASIS plates, which were washed two times with 200 μL of water. For each well, the flow-through was combined with the water washes and counted in a beta-counter after addition of scintillation fluid. 6-p-hydroxytestosterone was eluted from the OASIS plates with 1 mL of methanol, dried under N2, and reconstituted in 200 uL of 50% acetonitrile/water (50:50) containing 0.1% of formic acid. Aliquots were injected into an HPLC-MS/MS system for quantification of 6β-hydroxytestosterone. Quantification was based on comparison of peak areas with those of a standard curve that was treated and extracted exactly like unknown samples.

CYP3A4/5 [4] = molecular target: T1, CYP3A4/5; settings: human hepatocytes, 200 μM testosterone, 10 μM ketoconazole, 1 hour
Experimental: For each well, the flow-through was combined with the water washes and counted in a beta-counter after addition of scintillation fluid.
Aliquots were injected into an HPLC-MS/MS system for quantification of 6β-hydroxytestosterone. Quantification was based on comparison of peak areas with those of a standard curve that was treated and extracted exactly like unknown samples.

CYP3A4/5 [5] = molecular target: T1, CYP3A4/5; settings: HLM
CYP3A4/5 [6] = molecular target: T1, CYP3A4/5; settings: HLM; remark: listed apart in the source
CYP3A4 = CYP3A4 (Homo sapiens, UniProt P08684); settings: read-out: IC50 (Draper et al.); competitive substrate; cited from earlier work
Chain of CYP3A4 (P08684 whole entry): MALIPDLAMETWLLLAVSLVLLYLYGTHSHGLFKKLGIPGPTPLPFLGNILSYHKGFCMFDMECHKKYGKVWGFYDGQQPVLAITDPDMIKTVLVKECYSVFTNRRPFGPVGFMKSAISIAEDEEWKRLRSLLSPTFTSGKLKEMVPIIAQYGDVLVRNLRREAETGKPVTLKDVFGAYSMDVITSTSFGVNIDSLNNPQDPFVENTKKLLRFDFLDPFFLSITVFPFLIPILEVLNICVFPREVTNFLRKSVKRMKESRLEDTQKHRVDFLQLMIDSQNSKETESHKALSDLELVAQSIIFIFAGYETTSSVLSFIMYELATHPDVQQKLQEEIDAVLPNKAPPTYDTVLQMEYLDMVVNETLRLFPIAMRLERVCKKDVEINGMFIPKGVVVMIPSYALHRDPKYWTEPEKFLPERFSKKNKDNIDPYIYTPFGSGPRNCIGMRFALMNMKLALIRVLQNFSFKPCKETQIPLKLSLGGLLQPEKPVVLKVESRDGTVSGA

T1 sequence (P08684 2-503): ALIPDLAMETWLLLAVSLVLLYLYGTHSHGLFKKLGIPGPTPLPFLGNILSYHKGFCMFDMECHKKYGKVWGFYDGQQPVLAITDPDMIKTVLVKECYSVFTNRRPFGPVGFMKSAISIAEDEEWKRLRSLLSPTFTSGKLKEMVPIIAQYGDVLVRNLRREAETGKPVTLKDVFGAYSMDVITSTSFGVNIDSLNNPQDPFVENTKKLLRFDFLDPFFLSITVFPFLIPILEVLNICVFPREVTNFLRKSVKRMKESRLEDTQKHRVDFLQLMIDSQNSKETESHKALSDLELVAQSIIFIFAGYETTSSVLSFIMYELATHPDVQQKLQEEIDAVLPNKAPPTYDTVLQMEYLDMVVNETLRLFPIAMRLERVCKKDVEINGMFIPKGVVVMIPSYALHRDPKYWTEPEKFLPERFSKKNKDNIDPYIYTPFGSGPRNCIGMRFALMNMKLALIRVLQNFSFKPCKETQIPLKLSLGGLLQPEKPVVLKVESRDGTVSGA

SMILES: CC(C)C[C@H]1C(=O)N2CCC[C@H]2[C@]2(O)O[C@](NC(=O)[C@@H]3C=C4c5cccc6[nH]c(Br)c(c56)C[C@H]4N(C)C3)(C(C)C)C(=O)N12 [Bromocriptine]
- IC50 (CYP3A4/5 [1]): 1400 ± 10 nM
- IC50 (CYP3A4/5 [2]): 1200 ± 300 nM

SMILES: CC(=O)N1CCN(c2ccc(OCC3COC(Cn4ccnc4)(c4ccc(Cl)cc4Cl)O3)cc2)CC1 (stereo not shown) [Ketoconazole]
- Inhibition of 6β-hydroxytestosterone formation in cultured hepatocytes (CYP3A4/5 [3]): almost completely inhibited
- Inhibition of [^3H]-H2O formation in cultured hepatocytes (CYP3A4/5 [3]): almost completely inhibited
- Formation rate of 6β-hydroxytestosterone (CYP3A4/5 [4]): Not detected

SMILES: Clc1ccc(COC(Cn2ccnc2)c2ccc(Cl)cc2Cl)c(Cl)c1 (stereo not shown) [Miconazole]
- IC50 (CYP3A4/5 [2]): 60 ± 10 nM

SMILES: COC(=O)C1=C(C)NC(C)=C(C(=O)OCCN(C)Cc2ccccc2)C1c1cccc([N+](=O)[O-])c1 (stereo not shown) [Nicardipine]
- n (Hill coefficient) Radiometric (CYP3A4/5 [5]): 2.5
- n (Hill coefficient) LC-MS (CYP3A4/5 [6]): 2.7

SMILES: CC[C@H]1OC(=O)[C@H](C)[C@@H](O[C@H]2C[C@@](C)(OC)[C@@H](O)[C@H](C)O2)[C@H](C)[C@@H](O[C@@H]2O[C@H](C)C[C@H](N(C)C)[C@H]2O)[C@](C)(O)C[C@@H](C)C(=O)[C@H](C)[C@@H](O)[C@]1(C)O [erythromycin]
- IC50 (CYP3A4): 130000 nM

SMILES: C[C@]12CC[C@H]3[C@@H](CCC4=CC(=O)CC[C@@]43C)[C@@H]1CC[C@@H]2O [testosterone]
- V′max (apparent maximal rate of product formation) (CYP3A4/5 [2]): 1.3 ± 0.1 nmol/min/mg
